According to patent US8956445B2, “High stability diionic liquid salts” (Sigma-Aldrich Co., priority 2004, dated 2015):
Read-outs that look alike come from different tables or passages of the source.

Experiments:
[1] = Surface tension (DuNuoy Tensiometer); format: physicochemical; conditions: room temperature (23° C.)
[2] = Density (2.0 mL volumetric tube, weighing by difference); format: physicochemical; conditions: 23° C.
Description: (§1) The densities of the ionic liquids or, more correctly, […] (used synonymously except as indicated otherwise explicitly or by context) was determined at 23° C. by placing 2.0 mL of the ionic liquid in a 2.0 mL volumetric tube and weighing by difference. The melting points of the ionic liquids were determined using a Perkin Elmer Pyris 1 Differential Scanning calorimeter (Boston, Mass.). Typical methods involved using a 10° C./min temperature ramp to determine and identify the first and second order thermal transitions. […] For solid compounds, the melting points were verified using a capillary melting point apparatus. Refractive index measurements were conducted at 23° C. using a Bausch & Lomb Abbe-3L refractometer.

[3] = Refractive index (Abbe-3L refractometer); format: physicochemical; conditions: 23° C.
Description: as §1

[4] = Description: Thermal stabilities were measured by immobilizing an approximate 0.15-0.20 microns film of the ionic liquid on the inner wall of a fused silica capillary. The capillary was then heated slowly in an oven and a very sensitive flame ionization detector (or mass spectrometer) used to detect any volatilization or decomposition of the ionic liquid. There are several advantages of using this set-up to measure the thermal stabilities of ionic liquids. The thermal stability is measured in the absence of oxygen by purging the capillary with a continuous flow of an inert gas such as helium, hydrogen, or nitrogen. […] Finally, this approach can use mass spectrometry detection to determine the likely volatilization/decomposition products.
[5] = Solvation interaction parameters by inverse gas-liquid chromatography (Abraham solvation model); format: physicochemical
Description: The preparation of the capillary columns for inverse gas-liquid chromatographic analysis was performed using a previously described procedure.^31 All capillary columns had efficiencies between 2100 to 2500 plates/meter. Characterization of the capillary columns and probe molecule descriptions are listed in supplemental information. Multiple linear regression analysis (MLRA) and statistical calculations were performed using the program Analyse-it (Microsoft, USA).
We have previously reported that the Abraham solvation model, a linear free energy approach that utilizes inverse gas-liquid chromatography to describe the solvation properties of a liquid, can be used to characterize room temperature ionic liquids.^31 Described by equation 1, the model provides the so-called “interaction parameters” (r, s, a, b, l) by using multiple linear regression analysis to fit the retention factor (k, determined chromatographically) to the solute descriptors (R2, π2^H, α2^H, β2^H, log L^16) for a wide variety of probe solute molecules. […] The solvation properties of four dicationic ionic liquids (see Table 4) were evaluated and the interaction parameters compared to those obtained for their traditional monocationic analogues 1-butyl-3-methylimidazolium and 1-butyl-1-methylpyrrolidinium ionic liquids.
Previously we characterized a large number of room temperature ionic liquids in terms of multiple solvation interactions using the solvation parameter model, shown in equation 3.^44 log k=c+rR2+sπ2^H+aα2^H+bβ2^H+l log L^16 [3] This approach utilizes inverse gas-liquid chromatography and allows the use of a large number of probe molecules to deconvolute solute retention in terms of the type and magnitude of individual solvation interactions. The solute descriptors (R2, π2^H, α2^H, β2^H, log L^16) from Equation 3 are obtained from the literature for many probe molecules containing a variety of functional groups.^45 The retention factor is determined chromatographically. The solute descriptors and retention factors are subjected to multiple linear regression analysis to obtain the interaction parameter coefficients (r, s, a, b, l), which ultimately characterize the stationary phase: r is the ability of the diionic liquid containing-stationary phase to interact with π and n electrons of the solute, s is a measure of the dipolarity/polarizability of the diionic liquid containing-stationary phase, a defines the diionic liquid containing-stationary phase hydrogen bond basicity, b is a measure of the hydrogen bond acidity, and/refers to the ability of the diionic liquid containing-stationary phase to separate adjacent members of a homologous series.^46
Test solutes used to determine interaction parameters and solvation thermodynamics were dissolved in dichloromethane. A Hewlett-Packard model 5890 gas chromatograph and a Hewlett-Packard 6890 series integrator were used for all separations. Split injection and flame ionization detection were utilized with injection and detection temperatures of 250° C. Helium was used as the carrier gas with a column inlet pressure of 3.1 psi and flow rate of 1.0 mL/min. Methane was used to determine the dead volume of the column. Multiple linear regression analysis and statistical calculations were performed using the program Analyze-it (Microsoft).

Remark: listed apart in the source
[6] = exposed to the atmosphere and heated; cited from earlier work

Row | Compound | Surface Tension [1] [dynes/cm] | Density [2] [g/mL] | Refractive Index [3] | thermal stability (volatilization/decomposition temperature) [4] | a (hydrogen bond basicity) ([5]; 40° C.) | b (hydrogen bond acidity) ([5]; 40° C.) | c (interaction parameter table, constant) ([5]; 40° C.) | l (dispersion forces) ([5]; 40° C.) | r (interaction via nonbonding and π-electrons) ([5]; 40° C.) | s (dipolarity/polarizability) ([5]; 40° C.) | a (hydrogen bond basicity) ([5]; 70° C.) | b (hydrogen bond acidity) ([5]; 70° C.) | c (interaction parameter table, constant) ([5]; 70° C.) | l (dispersion forces) ([5]; 70° C.) | r (interaction via nonbonding and π-electrons) ([5]; 70° C.) | s (dipolarity/polarizability) ([5]; 70° C.) | a (hydrogen bond basicity) ([5]; 100° C.) | b (hydrogen bond acidity) ([5]; 100° C.) | c (interaction parameter table, constant) ([5]; 100° C.) | l (dispersion forces) ([5]; 100° C.) | also measured
1 | C[N+]1(CCCCCCCCC[N+]2(C)CCCC2)CCCC1.O=S(=O)([N-]S(=O)(=O)C(F)(F)F)C(F)(F)F.O=S(=O)([N-]S(=O)(=O)C(F)(F)F)C(F)(F)F [C9(mpy)2-NTf2, 1,9-di(methylpyrrolidinium)nonane di-bis[(trifluoromethyl)sulfonyl]imidate] | 42.2 | 1.41 | 1.436 | > 400 °C | 1.98 | 0.32 | −2.83 | 0.62 | 0.27 | 1.71 | 1.65 | 0.35 | −2.85 | 0.48 | 0.34 | 1.52 | 1.48 | 0.15 | −2.99 | 0.42 | r (interaction via nonbonding and π-electrons) ([5]; 100° C.): 0.23; s (dipolarity/polarizability) ([5]; 100° C.): 1.49; Miscibility with Heptane: Immiscible; Miscibility with Water: Immiscible
2 | Cn1cc[n+](CCCCCCCCC[n+]2ccn(C)c2)c1.O=S(=O)([N-]S(=O)(=O)C(F)(F)F)C(F)(F)F.O=S(=O)([N-]S(=O)(=O)C(F)(F)F)C(F)(F)F [C9(mim)2-NTf2, 1,9-di(3-methylimidazolium)nonane di-bis[(trifluoromethyl)sulfonyl]imidate] | 43.1 | 1.47 | 1.442 | 350-360 °C | 1.83 | 0.47 | −2.86 | 0.62 | 0.16 | 1.81 | 1.75 | 0.20 | −2.95 | 0.51 | 0.11 | 1.76 | 1.50 | 0.15 | −3.06 | 0.43 | r (interaction via nonbonding and π-electrons) ([5]; 100° C.): 0.11; s (dipolarity/polarizability) ([5]; 100° C.): 1.64; Miscibility with Heptane: Immiscible; Miscibility with Water: Immiscible
3 | CCCCn1cc[n+](C)c1.[Cl-] [BMIM-Cl, 1-butyl-3-methylimidazolium chloride, reference compound] |  |  |  |  |  |  |  |  |  |  |  |  |  |  |  |  |  |  |  |  | thermal stability (volatilization/decomposition temperature) ([4]; 0.15-0.20 micron film in fused silica capillary, helium flow, FID, tested only up to 400° C.): 145 °C; temperature of obvious signs of decomposition [6]: ≥ 150 °C
4 | O=S(=O)([N-]S(=O)(=O)C(F)(F)F)C(F)(F)F.O=S(=O)([N-]S(=O)(=O)C(F)(F)F)C(F)(F)F.c1ccc(Cn2cc[n+](CCCCCCCCCCCC[n+]3ccn(Cc4ccccc4)c3)c2)cc1 [C12(benzim)2-NTf2, 1,12-di(3-benzylimidazolium)dodecane di-bis[(trifluoromethyl)sulfonyl]imidate] | 41.5 | 1.37 | 1.482 | 350-360 °C | 1.96 | 0.84 | −2.94 | 0.66 | 0.11 | 1.65 | 1.75 | 0.57 | −3.07 | 0.56 | 0.07 | 1.62 | 1.44 | 0.52 | −3.12 | 0.46 | r (interaction via nonbonding and π-electrons) ([5]; 100° C.): 0; s (dipolarity/polarizability) ([5]; 100° C.): 1.47; Miscibility with Heptane: Immiscible; Miscibility with Water: Immiscible
